In US10537611B2, “Methods of treating lung cancer” (Five Prime Therapeutics, Inc., priority 2011, dated 2020):

Experiments:
[1] = test system: Colo201 xenograft model; assay: Colo201 xenograft tumor growth inhibition; format: in vivo, mouse; conditions: Colon Colo201; IP 15 mg/kg BIW; non-amplified; P ns
Procedure: (§1) Percentage tumor growth inhibition by FGFR1-ECD.339-Fc was determined by area-under-the-curve (AUC) analysis of xenograft growth curves treated with FGFR1-ECD.339-Fc compared to albumin control. […] The difference in FGFR1-ECD.339-Fc-mediated xenograft inhibition between FGFR1 gene amplified and non-amplified lung cancer xenograft models was statistically significant (P=0.0333).
(§2) Also shown in Table 5 are the dosing schedule for FGFR1-ECD.339-Fc in a mouse xenograft model, the percent tumor growth inhibition (TGI (%)) and the statistical significance of the tumor growth inhibition (P Value), as well as whether the FGFR1 gene is amplified in the cell line.
(§3) An exemplary xenograft experiment is as follows. For Caki-1 and MSTO-211H, five million cells were implanted subcutaneously over the right flank of SCID mice (N=10 per group). […] Representative tumor growth curves are shown for a renal cancer, Caki-1, (A), and mesothelioma, MSTO-211H, (B) xenograft cancer model. […] In the MSTO-211H mesothelioma model, FGFR1-ECD.339-Fc administration reduced tumor growth (FIG. 16b) by 64% (P<0.0001).

[2] = test system: MDA-MB-231 xenograft model; assay: MDA-MB-231 xenograft tumor growth inhibition; format: in vivo, mouse; conditions: Breast MDA-MB-231; IP 15 mg/kg BIW; non-amplified; P ns
Procedure: as §1, §2, §3

[3] = test system: panel of 35 xenograft models; assay: Anti-tumor activity in a panel of xenograft models; format: in vivo, mouse; conditions: panel of Table 5
From the text: as §2, §3

[4] = test system: NCI-H1581 cells; assay: CellTiter-Glo cell number, NCI-H1581; format: cell-based, human; conditions: 15 μg/ml, 4 days, 10%, 1% or 0.1% FBS
From the text: A panel of lung cancer cell lines displaying potential amplification of the FGFR1 gene was identified using CONAN (http://www.sanger.ac.uk/cgi-bin/genetics/CGP/conan/search.cgi) and Tumorscape (http://www.broadinstitute.org/tumorscape/pages/portalHomejsf). CONAN and Tumorscape represent public data mining tools to extract gene copy number information for predefined or user defined loci across the SNP6.0 dataset of cancer. Lung cancer cell lines DMS53, DMS114, NCI-H1581 and NCI-H520 were identified as having potential amplification of the FGFR1 gene (>4 copies/cell) and were selected for further analysis. Human small cell lung cancer (SCLC) cell lines DMS53 and DMS114 were purchased from ATCC (Manassas, Va.; Cat. No. CRL-2062; Cat. No. CRL-2066, respectfully). The cells were cultured in Waymouth's MB 752/1 medium+10% FBS+2 mM L-glutamine at 37° C. in a humidified atmosphere with 5% CO2. […]
To determine cell number the CellTiter-Glo® Luminescent Cell Viability Assay (Promega, Madison, Wis.) was employed. CellTiter-Glo® is a homogeneous method of determining the number of viable cells in culture based on quantitation of the ATP present, an indicator of metabolically active cells. […] Luminescence was then determined on an EnVision™ Multilabel Plate Reader (PerkinElmer, Boston, Mass.) with a 0.2 second integration time. Results were expressed as relative light units (RLU)/well.

[5] = test system: HCT116 xenograft model; assay: HCT116 xenograft tumor growth inhibition; format: in vivo, mouse; conditions: Colon HCT116; IP 15 mg/kg BIW; FGFR1 non-amplified; P ns
Procedure: as §1, §2, §3

[6] = test system: Calu-1 xenograft model; assay: Calu-1 xenograft tumor growth inhibition; format: in vivo, mouse; conditions: Lung Calu-1; IP 15 mg/kg BIW; non-amplified; P ns
Procedure: as §1, §2, §3

FGFR1-ECD.339-Fc: human FGFR1 extracellular domain ending at amino acid 339 fused to an Fc; SEQ ID NO: 6 (mature form), SEQ ID NO: 5 with signal peptide
TGI (%) [1]: 0%
TGI (%) [2]: 0%
Responses observed (models responding / models examined) [3]: 19/35
range of inhibition in responding models [3]: 25-96%
cell number (CellTiter-Glo) [4]: reduced
TGI (%) [5]: 0%
TGI (%) [6]: 0%
